Measured values as given in patent US8318741B2, “Therapeutic compositions and methods” (The Texas A & M University System, priority 2005, dated 2012).
Read-outs that look alike come from different tables or passages of the source. Marks after values point to notes of the source that are not given here. One block for each compound: values may come before it.

Key:
[1] = tested on: carrageenin induced inflammation; assay: Carrageenin-induced inflammation (paw edema); assay type: in vivo, Sprague Dowley rats
Experimental: Forty female Sprague Dowley rats weighing 164±16 g were used for the experiments. The test and control groups were assigned randomly. Carrageenin (0.1 mL of 1% solution) was injected into the plantar surface of the rat hind paw to induce inflammation. Ten minutes before carrageenin injection, 8 mL of water administered ig. […] The changes in volume of the inflamed edematous foot were measured by the volume of water displaced and recorded at 0, 0.5, 1, 2, 4, and 6 h after the carrageenin injection.

guinea pigs = conditions: known before the Draize test; cited from earlier work
[2] = tested on: choroidal neovascularization in rat eyes
[3] = tested on: trabeculectomy failure caused by inflammation; set-up: species or system Dutch Belted rabbits; conditions: rabbit, in vivo
mice = assay: LD50 determination / acute oral toxicity; assay type: in vivo
Experimental: LD50 determination: For each dose, 20 mice of either sex, weighing 18-20 g were used to determined the LD50 according to the method of Litchfield & Wilcoxon, J. Pharmacol. Exp. Ther. 96:99-113 (1949). Animals were housed in an animal room at 25° C. and 70% relative humidity. The light cycle was set for 12 h light and 12 h darkness.

[4] = tested on: ocular hypertensive rabbit eyes; assay: Choroidal blood flow in ocular hypertensive rabbit eyes (colored microspheres); assay type: in vivo, New Zealand white rabbits; conditions: for Choroidal Blood Flow, 30 min / Choroidal Blood Flow, 60 min / Choroidal Blood Flow, 120 min / Choroidal Blood Flow, 180 min / Time after administration over which the action on choroidal blood flow lasted: 50 μl, 1% topically; for Choroidal Blood Flow, 30 min / Choroidal Blood Flow, 60 min / Choroidal Blood Flow, 120 min / Choroidal Blood Flow, 180 min: vehicle controls at 100%, mean ± SD, N = 6
rat eyes = assay: Retinal function recovery after ischemic insult in rat eyes (ERG b-wave); conditions: 10 mg/kg ip; for Retinal Function Recovery After Ischemic Insult, Treated: Mean ± SD, N = 6; for Retinal Function Recovery, Net increase (%): treated versus control
IL-1 induced uveitis = assay: Interleukin-1 induced uveitis; assay type: in vivo, Sprague-Dawley rats; conditions: 20 mg/kg t.i.d.
[5] = at various dose levels, AMD rat model
[6] = N-nitro-azoles and C-nitropyrazoles, 30 min
[7] = N-nitro-azoles and C-nitropyrazoles
[8] = N-Nitropyrazoles and C-Nitropyrazoles, b-wave recovery after 30 min ischemia
[9] = N-Nitropyrazoles and C-Nitropyrazoles
[10] = Flavonoids, 30 min after administration

Structure (SMILES): CC1(Br)CSC(=Nc2ccccc2)N(c2ccccc2)C1=O (stereo not shown) [CK-17, 5-bromo-5-methyl-3-phenyl-2-phenylimino-1,3-thiazinan-4-one]
Potency relative to aspirin ([1]; carrageenin induced inflammation): about 10 times | Inhibition of carrageenin induced inflammation ([1]; ip 3 times before carrageenin): very effective in inhibiting carrageenin induced inflammation | Skin irritation (guinea pigs): did not produce skin irritation | Effective dose to inhibit CNV formation ([2]; rat, in vivo, ip): 30 mg/kg | Delay of trabeculectomy failure [3]: prolonged the appearance of trabeculectomy failure | Delay of trabeculectomy failure relative to prednisolone [3]: more effective than prednisolone | Toxic response (mice; 20 g/kg given orally, observed at least 7 days): did not cause any toxic response | LD50 equivalent for man (mice; orally, extrapolated to man): ≥ 1,400 g/70 kg

Structure (SMILES): CC(C)(C)NC[C@@H](O)COc1nsnc1N1CCOCC1 [D-Timolol, (2R)-1-[(4-morpholin-4-yl-1,2,5-thiadiazol-3-yl)oxy]-3-(tert-butylamino)propan-2-ol]
Inhibition of CNV formation ([2]; 15 mg/kg i.p. once a day for 4 weeks): effective in inhibiting some CNV formation but not as potent as hydralazine or guanabenz | Inhibition of CNV formation [2, 5]: potent inhibition of CNV formation

Structure (SMILES): CONC(=O)c1ccn([N+](=O)[O-])n1 [DN-6, N-methoxy-1-nitro-1H-pyrazole-3-carboxamide]
Choroidal Blood Flow, 30 min [4, 6]: 56.9 ± 17.5^e % | Choroidal Blood Flow, 60 min [4, 7]: 61.8 ± 20.9 % | Choroidal Blood Flow, 120 min [4, 7]: 88.3 ± 34.1 % | Choroidal Blood Flow, 180 min [4, 7]: 128.5 ± 60.0 % | Retinal Function Recovery After Ischemic Insult, Treated (rat eyes; [8]): 64.0 ± 24.9 % | Retinal Function Recovery, Net increase (%) (rat eyes; [9]): 94.5%

Structure (SMILES): O=C(O)c1ccn([N+](=O)[O-])n1 [DN-7, 1-nitro-1H-pyrazole-3-carboxylic acid]
Choroidal Blood Flow, 30 min [4, 6]: 42.0 ± 13.7% | Choroidal Blood Flow, 60 min [4, 7]: 57.2 ± 3.7 % | Choroidal Blood Flow, 120 min [4, 7]: 80.5 ± 23.1 % | Choroidal Blood Flow, 180 min [4, 7]: 87.3 ± 29.6 % | Retinal Function Recovery After Ischemic Insult, Treated (rat eyes; [8]): 71.4 ± 20.2 % | Retinal Function Recovery, Net increase (%) (rat eyes; [9]): 117.0%

Structure (SMILES): NC(N)=NN=Cc1c(Cl)cccc1Cl [Guanabenz, 2-[(2,6-dichlorophenyl)methylideneamino]guanidine]
Inhibition of CNV formation ([2]; 20 mg/kg i.p. once a day for 4 weeks, eight laser lesions): All eight CNV formations were inhibited | Inhibition of CNV formation ([2]; 20 mg/kg i.p. once a day for 4 weeks, eight laser lesions, listed as guanabenz): inhibition of CNV formation | Inhibition of CNV formation [2, 5]: potent inhibition of CNV formation

Structure (SMILES): NNc1nncc2ccccc12 [Hydralazine, phthalazin-1-ylhydrazine]
Inhibition of CNV formation ([2]; 5 mg/kg i.p. once a day for 4 weeks, eight laser lesions): four out of eight | Inhibition of CNV formation ([2]; 10 mg/kg i.p., eight laser lesions): inhibited all CNV formation effectively | Inhibition of CNV formation ([2]; 10 mg/kg i.p., eight laser lesions, listed as hydralazine): inhibition of CNV formation | Inhibition of CNV formation [2, 5]: potent inhibition of CNV formation

Retinal Function Recovery After Ischemic Insult, Treated (rat eyes; Flavonoids, b-wave recovery relative to original level after 30 min ischemia): 54.0 ± 17.8 % | Retinal Function Recovery, Net increase (%) (rat eyes; Flavonoids): 66.1%
Structure (SMILES): O=C1CC(c2ccc(O)cc2)Oc2cc(O)cc(O)c21 (stereo not shown) [Naringenin, 5,7-dihydroxy-2-(4-hydroxyphenyl)chroman-4-one]
Inhibition of CNV formation ([2]; 30 mg/kg i.p., eight laser lesions): marked inhibition of CNV formation | Inhibition of CNV formation [2, 5]: potent inhibition of CNV formation | Time after administration over which the action on choroidal blood flow lasted [4]: at least 2 hrs | Choroidal Blood Flow, 30 min [4, 10]: 102.5 ± 22.0^e* % | Choroidal Blood Flow, 60 min ([4]; Flavonoids): 226.1 ± 55.0 % | Choroidal Blood Flow, 120 min ([4]; Flavonoids): 124.2 ± 74.5 % | Choroidal Blood Flow, 180 min ([4]; Flavonoids): 137.4 ± 712% | Onset / latent period of the increase of choroidal blood flow ([4]; after drug administration): 30 min | Time of peak effect on choroidal blood flow ([4]; after drug administration): 60 min | Increase of choroidal blood flow at the peak, of the original blood flow ([4]; at the peak (60 min after drug administration)): more than 200%

Retinal Function Recovery After Ischemic Insult, Treated (rat eyes; Flavonoids, b-wave recovery relative to original level after 30 min ischemia, 10 mg/kg): 90.0 ± 17.2 % | Retinal Function Recovery After Ischemic Insult, Treated (rat eyes; Flavonoids, b-wave recovery relative to original level after 30 min ischemia, listed as puerarin, 10 mg/kg): 90% | Retinal Function Recovery, Net increase (%) (rat eyes; Flavonoids): 190.3%
Structure (SMILES): O=c1c(-c2ccc(O)cc2)coc2c([C@@H]3O[C@H](CO)[C@@H](O)[C@H](O)[C@H]3O)c(O)ccc12 [Puerarin]
Time after administration over which the action on choroidal blood flow lasted [4]: > 3 h | Choroidal Blood Flow, 30 min [4, 10]: 30.9 ± 7.7% | Choroidal Blood Flow, 60 min ([4]; Flavonoids): 114.9 ± 21.5 % | Choroidal Blood Flow, 120 min ([4]; Flavonoids): 160.8 ± 70.7 % | Choroidal Blood Flow, 180 min ([4]; Flavonoids): 127.4 ± 65.5 % | Start of action on choroidal blood flow ([4]; after administration): 1 h

Structure (SMILES): C[C@]12C=CC(=O)C=C1CC[C@@H]1[C@@H]2[C@@H](O)C[C@@]2(C)[C@H]1CC[C@]2(O)C(=O)CO [prednisolone]
Minimal dose required to produce inhibition of CNV formation ([2]; i.p.): 3 mg/kg | Blockade of IL-1 induced uveitis (IL-1 induced uveitis): blocked effectively
